One experiment concerns Target Positive Cell. Briefly: Tumor cell line assay Example 2b, target positive cells. The following applies: hemiasterlin derivatives, 120 hrs. Type of experiment: cell-based. The procedure: (§1) Cytotoxicity effects of test compounds on target positive and target negative cells were measured with a cell proliferation assay. Tumor cell lines were obtained from American Type Culture Collection (ATCC) and maintained in Ham's F-12: high glucose DMEM (50:50) glucose medium supplemented with 10% heat-inactivated fetal bovine serum, 1% Penicillin/Streptomcin and 2 mmol/L L-glutamax. Target positive and negative cells (a total of 625 cells per well) were seeded in a volume of 25 μL in a 384-well flat bottom white polystyrene plate. The cells were allowed to adhere overnight at 37° C. in a CO2 incubator. ADC variants were formulated at 2× concentration in DMEM/F12 medium and filtered through MultiScreen HTS 96-Well Filter Plates. Filter sterilized ADCs were serial diluted (1:3) and 25 μL of diluted samples were added into each treatment wells. Plates were then cultured at 37° C. in a CO2 incubator for 120 hrs. For cell viability measurement, 30 μL of Cell Titer-Glo® reagent (Promega Corp) was added into each well, and plates processed as per product instructions. Relative luminescence was measured on an ENVISION® plate reader (Perkin-Elmer; Waltham, Mass.). Relative luminescence readings were converted to % viability using untreated cells as controls. Data was fitted with non-linear regression analysis, using log(inhibitor) vs. response, variable slope, 4 parameter fit equation using GraphPad Prism (GraphPad v 5.00, Software; San Diego, Calif.). Data was expressed as % relative cell viability vs. dose of ADC in nM.

A further experiment deals with Target Negative Cell. As to the kind of experiment: Tumor cell line assay Example 2b, target negative cells. Type of experiment: cell-based. The following applies: hemiasterlin derivatives, 120 hrs. The procedure:
as §1

In a further experiment the test system is RPMI-6666 (HL). Briefly: Cell binding assay anti-CD74, RPMI-6666. The following applies: B-Lymphoma. On the procedure: (§2) Cell lines were maintained in RPMI, high glucose (Cellgro-Mediatech; Manassas, Va.) supplemented with 20% heat-inactivated fetal bovine serum (Hyclone; Thermo Scientific; Waltham, Mass.), 2 mM glutamax (Invitrogen; Carlsbad, Calif.) and 1× Pencillin/streptomycin (Cellgro-Mediatech; Manassas, Va.). Cells were harvested and re-suspended in FACS buffer (DPBS buffer supplemented with 1% bovine serum albumin). A total of 200,000 cells per well were incubated on ice with serial dilutions of anti-CD74 lead SP7919 without conjugation for 60 minutes. Cells were washed twice with ice-cold FACS buffer and incubated with 5 ug/ml Alexa 647 labeled donkey anti-human IgG antibody (Jackson Immune-Research) on ice for another 60 mins. Unstained cells and cells stained with secondary antibody alone were used as controls. Samples were then washed twice using FACS buffer and analyzed using a BD FACS Canto system. Mean fluorescence intensities were fitted using non-linear regression analysis with one site specific binding equation on GraphPad Prism. Data was expressed as geometric mean fluorescent intensity vs. antibody concentration in nM.

A further experiment deals with SU-DHL-6 (NHL). Briefly: Cell binding assay anti-CD74, SU-DHL-6. The conditions noted are these: B-Lymphoma. On the procedure:
as §2

For a further experiment, the system named is ARD (MM). As to the kind of experiment: Cell binding assay anti-CD74, ARD. The following applies: Multiple Myeloma. On the procedure:
as §2

Another experiment relates to RPMI-8226 (MM). As to the kind of experiment: Cell binding assay anti-CD74, RPMI-8226. The following applies: Multiple Myeloma. On the procedure:
as §2

A further experiment has as its system BDCM (AML). Briefly: Cell binding assay anti-CD74, BDCM. The following applies: Leukemia. The procedure:
as §2

For another experiment, the system named is SUP-B15 (ALL). Briefly: Cell binding assay anti-CD74, SUP-B15. The conditions noted are these: Leukemia. The procedure: as §2
For another experiment, the system named is JVM-13 (CLL). Briefly: Cell binding assay anti-CD74, JVM-13. The following applies: Leukemia. On the procedure:
as §2

By IC50 is commonly meant the concentration that gives 50% inhibition. A lower IC50 goes with greater potency. As a reminder, the Kd is a measure of binding affinity in units of concentration. Lower therefore signals tighter binding.

As for `CN[C@H](C(=O)N[C@H](C(=O)N(C)[C@H](/C=C(\C)C(=O)O)C(C)C)C(C)(C)C)C(C)(C)c1cccc(NC(=O)OCc2ccc(NC(=O)[C@H](C)NC(=O)[C@@H](NC(=O)CCCCC(=O)N3Cc4ccccc4C#Cc4ccccc43)C(C)C)cc2)c1` [Compound 110a], in the experiment on Target Positive Cell, the IC50 turned out to be 26 nM and the “Target Positive Cell Span (%)” value is recorded as 93%. Besides, in the experiment on Target Negative Cell, inhibition was half-maximal at 337 nM (IC50) and the “Target Negative Cell Span (%)” value was found to be 90%.
For `CNC(C(=O)N[C@H](C(=O)N(C)[C@H](/C=C(\C)C(=O)O)C(C)C)C(C)(C)C)C(C)(C)c1cccc(NC(=O)[C@H](C)NC(=O)[C@@H](NC(=O)CCCCC(=O)N2Cc3ccccc3C#Cc3ccccc32)C(C)C)c1` (stereo partly drawn) [Compound 111a], in that order: 65 nM, 92%, 717 nM and 91%.
For `CN[C@H](C(=O)N[C@H](C(=O)N(C)[C@H](/C=C(\C)C(=O)O)C(C)C)C(C)(C)C)C(C)(C)c1cccc(NC(=O)OCc2ccc(NC(=O)[C@H](CCCNC(N)=O)NC(=O)[C@@H](NC(=O)CCC(=O)N3Cc4ccccc4C#Cc4ccccc43)C(C)C)cc2)c1` (single isomer, unassigned) [Compound 101a], in that order: 222 nM, 93%, 2010 nM and 110%.
As to `CN[C@H](C(=O)NC(C(=O)N(C)[C@H](/C=C(\C)C(=O)O)C(C)C)C(C)(C)C)C(C)(C)c1cccc(NC(=O)OCc2cc(C)c(OC3OC(C(=O)O)C(O)C(O)C3O)c(NC(=O)CCNC(=O)CCCCC(=O)N3Cc4ccccc4C#Cc4ccccc43)c2)c1` (stereo partly drawn) [Compound 109a], in the experiment with Target Positive Cell, the IC50 was 661 nM and the “Target Positive Cell Span (%)” value came out at 92%. In addition, in the experiment with Target Negative Cell, the IC50 was 2440 nM and the “Target Negative Cell Span (%)” value was 95%.

B1: anti-CD74: anti-CD74 lead SP7919 without conjugation (antibody, V domains shown)
VH: QVQLVESGGGVVQPGRSLRLSCAASGFNFSDYGMHWVRQAPGKGLEWVAVIWYDGSISYYADSVKGRFTISRDNSKNTLYLQMNSLRAEDTAVYYCARGGTVEHGAVYGTDVWGQGTTVTVSS
VL: DIQMTQSPSSVSASVGDRVTITCRASQGIGSWLAWYQQKPGKAPKLLIYAADRLQSGVPSRFSGSGSGTDFTLTISSLQPEDFATYYCQQYHTYPLTFGGGTKVEIK
modifications: non-natural residues
For B1, the “Cell Binding anti-CD74 Bmax” value with RPMI-6666 (HL) came out at 3879; in the experiment on SU-DHL-6 (NHL), 1565; in the experiment on ARD (MM), 190; in the experiment with RPMI-8226 (MM), 119; with BDCM (AML) it was 3059; in the experiment with SUP-B15 (ALL) it was 680. In the experiment on JVM-13 (CLL), the “Cell Binding anti-CD74 Bmax” value came to 447. In addition, the Kd came out at 2.3 nM with RPMI-6666 (HL); 2 nM in the experiment on SU-DHL-6 (NHL); 2.6 nM in the experiment with ARD (MM); 3.6 nM in the experiment on RPMI-8226 (MM); 4.5 nM with BDCM (AML); 3.5 nM in the experiment with SUP-B15 (ALL). The molecule further had a Kd in the experiment on JVM-13 (CLL) of 2.5 nM.

The values are drawn from patent publication US11866515B2, “Hemiasterlin derivatives for conjugation and therapy” (priority 2015, dated 2024).
